Assay results taken from PMC9635829 (Science Advances, 2022).

How the values were obtained:
OdinAK (AdkA1) [1] = target: T1, OdinAK (AdkA1) (Candidatus Odinarchaeum yellowstonii, UniProt A0AAF0D2B2); assay: ITC; type: binding
T1 sequence (A0AAF0D2B2 1-198): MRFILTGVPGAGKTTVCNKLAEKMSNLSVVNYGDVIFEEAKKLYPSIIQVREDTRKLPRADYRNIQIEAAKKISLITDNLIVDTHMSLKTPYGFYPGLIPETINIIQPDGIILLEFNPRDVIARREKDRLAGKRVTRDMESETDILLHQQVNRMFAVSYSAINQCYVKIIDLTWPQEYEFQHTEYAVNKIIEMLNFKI

[2] = target: adenylate kinase from Odinarchaeota (OdinAK), wild type (Odinarchaeota); assay: SEC-MALS
OdinAK (AdkA1) [3] = target: T1, OdinAK (AdkA1); assay: X-ray crystal structure; type: binding; settings: ATP/AMP-mimicking inhibitor, spans both substrate sites
OdinAK (AdkA1) [4] = target: T1, OdinAK (AdkA1); assay: […] real-time NMR; type: biochemical; settings: 65 °C, 1 mM ATP (or other NTP), 300 μM AMP, 5 mM MgCl2, pH 7.0

Compound | Kd (OdinAK (AdkA1) [1]) [µM] | further results
Nc1ncnc2c1ncn2[C@@H]1O[C@H](COP(=O)(O)OP(=O)(O)OP(=O)(O)O)[C@@H](O)[C@H]1O [ATP] | 0.3 ± 0.1 | –
adenylate kinase from Odinarchaeota (OdinAK), wild type (enzyme) | – | stoichiometry N [2]: 3
Nc1ncnc2c1ncn2[C@@H]1O[C@H](COP(=O)(O)OP(=O)(O)OP(=O)(O)OP(=O)(O)OP(=O)(O)OC[C@H]2O[C@@H](n3cnc4c(N)ncnc43)[C@H](O)[C@@H]2O)[C@@H](O)[C@H]1O [Ap5A, P^1,P^5-di(adenosine-5′) pentaphosphate] | – | X-ray crystal structure (OdinAK (AdkA1) [3]): we determined the crystal structure of the enzyme in complex with the tight binding
Nc1ncnc2c1ncn2[C@@H]1O[C@H](COP(=O)(O)O)[C@@H](O)[C@H]1O [AMP] | – | 31P real-time NMR (OdinAK (AdkA1) [4]): OdinAK can use GTP and all other NTPs as substrate for phosphorylation of AMP
O=c1ccn([C@@H]2O[C@H](COP(=O)(O)OP(=O)(O)OP(=O)(O)O)[C@@H](O)[C@H]2O)c(=O)[nH]1 [UTP] | 4.6 ± 0.5 | –

Further lines, with some results ahead:

Kd (OdinAK (AdkA1) [1]) [µM] | Compound | further results
24.2 ± 8 | Cc1cn([C@H]2C[C@H](O)[C@@H](COP(=O)(O)OP(=O)(O)OP(=O)(O)O)O2)c(=O)[nH]c1=O [dTTP] | –
0.8 ± 0.1 | Nc1ncnc2c1ncn2[C@@H]1O[C@H](COP(=O)(O)OP(=O)(O)O)[C@@H](O)[C@H]1O [ADP] | –
28.7 ± 7 | Nc1ccn([C@@H]2O[C@H](COP(=O)(O)OP(=O)(O)OP(=O)(O)O)[C@@H](O)[C@H]2O)c(=O)n1 [CTP] | –
7.2 ± 0.6 | Nc1nc2c(ncn2[C@@H]2O[C@H](COP(=O)(O)OP(=O)(O)OP(=O)(O)O)[C@@H](O)[C@H]2O)c(=O)[nH]1 [GTP] | –
